Measurements: ChEMBL document CHEMBL3352040, “From human immunodeficiency virus non-nucleoside reverse transcriptase inhibitors to potent and selective antitrypanosomal compounds” (Bioorg Med Chem, 2014)
Activity calls are given as the source filed them. No cut-off for these calls is given here.

Key:
Trypanosoma cruzi = test: Trypanocidal activity against nifurtimox-sensitive Trypanosoma cruzi Tulahuen CL2 infected in human MRC5 SV2 cells assessed as parasite growth inhibition after […] by beta-galactosidase assay; type: functional, organism-based
[1] = test system: Trypanosoma brucei brucei; test: Antitrypanocidal activity against suramin-sensitive Trypanosoma brucei brucei Squib427 assessed as reduction in parasite growth after 72 hrs; type: functional, organism-based; conditions: Squib427, 72 h
[2] = test system: Human immunodeficiency virus 1; test: Antiviral activity against HIV1 infected in human TZM-bl cells assessed as viral inhibition pre-incubated for 30 mins prior to infection measured after 48 hrs by; type: functional, organism-based; conditions: Human immunodeficiency virus 1, TZM-bl
[3] = test system: Trypanosoma brucei rhodesiense; test: Antitrypanocidal activity against suramin-sensitive Trypanosoma brucei rhodesiense STIB-900 assessed as reduction in parasite growth after 72 hrs; type: functional, organism-based; conditions: STIB-900, 72 h
Leishmania infantum = test: Antileishmanial activity against Leishmania infantum MHOM/MA (BE)/67 infected in primary peritoneal mouse macrophages assessed as reduction in parasite burdun; type: functional, organism-based
[4] = Cytotoxicity against human TZM-bl cells assessed as cell viability after 48 hrs by WST1 assay; type: cell-based
Plasmodium falciparum = test: Antiplasmodial activity against chloroquine-resistant Plasmodium falciparum K1 infected in human O positive erythrocyte assessed as reduction in parasitemia after 72 hrs; type: functional, organism-based; conditions: K1, 72 h
[5] = Cytotoxicity against human MRC5 SV2 cells assessed as reduction in cell growth after 72 hrs; type: cell-based; conditions: MRC5, 72 h
[6] = Stability of the compound in PBS buffer assessed as recovery at pH 7.4 measured after 24 hrs by UPLC analysis; type: physicochemical; conditions: read-out: Drug recovery
[7] = Metabolic stability in human plasma assessed as compound remaining after 1 hr; type: ADME, cell-free; conditions: read-out: Stability
[8] = Octanol-phosphate buffer partition coefficient, log D of the compound at pH 7.4 after 2 hrs of shaking after 2 hrs; type: physicochemical
[9] = Solubility of the compound in 10 mM PBS buffer solution at pH7.4 at 3.125 to 200 uM after 2 hrs; type: physicochemical; conditions: pH 7.4
[10] = Metabolic stability in human liver microsomes assessed as compound remaining after 15 mins by UPLC analysis; type: ADME; conditions: read-out: Stability
[11] = Metabolic stability in mouse liver microsomes assessed as compound remaining after 15 mins by UPLC analysis; type: ADME; conditions: read-out: Stability
[12] = Metabolic stability in mouse plasma assessed as compound remaining after 1 hr; type: ADME, cell-free; conditions: read-out: Stability
[13] = test system: Trypanosoma brucei brucei; test: Trypanocidal activity against suramin-sensitive Trypanosoma brucei brucei Squib427 infected in Swiss mouse assessed as reduction in parasitemia at 10 mg/kg first dose through orally and next four dosed administered intraperitoneally for 4 days; type: functional; conditions: Squib427, 96 h, route oral
[14] = test system: Trypanosoma brucei brucei; test: Trypanocidal activity against suramin-sensitive Trypanosoma brucei brucei Squib427 infected in Swiss mouse assessed as mean survival time at 10 mg/kg first dose through orally and next four dosed administered intraperitoneally for 4 days (reference value: 7.2 days); type: functional; conditions: route oral
[15] = test system: Trypanosoma brucei brucei; test: Trypanocidal activity against suramin-sensitive Trypanosoma brucei brucei Squib427 infected in Swiss mouse assessed as survivors on day 14 post infection at 10 mg/kg first dose through orally and next four dosed administered intraperitoneally for 4 days; type: functional, organism-based; parameters: dose 10 mg/kg

Structure (SMILES)	IC50 (Trypanosoma cruzi) [µM]	IC50 [1] [µM]	EC50 [2] [µM]	IC50 [3] [µM]	IC50 (Leishmania infantum) [µM]	CC50 at 48 h [4] [µM]	IC50 (Plasmodium falciparum) [µM]	IC50 [5] [µM]	also measured
NS(=O)(=O)c1ccc(Oc2ccc(NC(=O)N[C@H]3[C@@H]4COc5c(F)ccc(F)c5[C@@H]43)nc2)cc1	> 64	32.1	0.001	38.5	32.5	> 100	29.5		
N#Cc1ccc(NC(=O)N[C@@H]2[C@@H]3COc4c(F)ccc(F)c4[C@@H]32)nc1	> 64	> 64	0.001	> 64	> 64		64	> 64	
CO[C@H]1O[C@@H]2O[C@@]3(C)CC[C@H]4[C@H](C)CC[C@@H]([C@H]1C)[C@@]24OO3							> 64		
c1ccc(Nc2ccnc(Nc3ccccc3)n2)cc1	4.45	7.27	> 10	2.53	22.2		21.8	13.2	
O=C(Cn1ccnc1[N+](=O)[O-])NCc1ccccc1 [BENZNIDAZOLE]	2.56								
CCN(CC)CCCC(C)Nc1ccnc2cc(Cl)ccc12 (stereo unspecified) [CHLOROQUINE]							> 64		
Cc1cc(C)c(Nc2ccnc(Nc3ccc(C#N)cc3)n2)c(C)c1 [DAPIVIRINE]	1.25	> 16	0.002	19.5	> 64	2.47	4.88	> 64	
CC(C)Nc1cccnc1N1CCN(C(=O)c2cc3cc(NS(C)(=O)=O)ccc3[nH]2)CC1 [DELAVIRDINE]	> 64	> 64	0.055	> 64	> 64	> 50	64	> 64	
O=C1Nc2ccc(Cl)cc2[C@@](C#CC2CC2)(C(F)(F)F)O1 [EFAVIRENZ]	8.56	30.2		19.6	7.4	> 50	43.8	25.8	
Cc1cc(C#N)cc(C)c1Oc1nc(Nc2ccc(C#N)cc2)nc(N)c1Br [ETRAVIRINE]	> 64	> 64	0.001	> 64	41.6	> 25	64	> 64	
CCc1nn(CCO)c(CC)c1Oc1cc(C#N)cc(C#N)c1 [LERSIVIRINE]	> 64	> 64	0.003	54.7	> 64	> 100	> 64		
Nc1nc(N)nc(Nc2ccc([As]3SCC(CO)S3)cc2)n1 (stereo unspecified) [MELARSOPROL]		0.03		0.02				7.4	remaining at 24 h [6]: 100%; remaining at 1 h [7]: 100%; logD at 2 h [8]: 4.51; solubility at 2 h [9]: 25 µM; remaining at […] [10]: 84%; remaining at […] [11]: 72%; remaining at 1 h [12]: 100%
CCCCCCCCCCCCCCCCOP(=O)([O-])OCC[N+](C)(C)C [MILTEFOSINE]					6.17				
Cc1ccnc2c1NC(=O)c1cccnc1N2C1CC1 [NEVIRAPINE]	> 64	> 64	0.144	> 64	> 64	> 50	64	> 64	
CC1CS(=O)(=O)CCN1/N=C/c1ccc([N+](=O)[O-])o1 (stereo unspecified) [NIFURTIMOX]	0.7								
Cc1ccc(C(=O)Nc2ccc(S(=O)(=O)O)c3cc(S(=O)(=O)O)cc(S(=O)(=O)O)c23)cc1NC(=O)c1cccc(NC(=O)Nc2cccc(C(=O)Nc3cc(C(=O)Nc4ccc(S(=O)(=O)O)c5cc(S(=O)(=O)O)cc(S(=O)(=O)O)c45)ccc3C)c2)c1 [SURAMIN]		0.02		0.02				> 64	inhibition in vivo at 10 mg/kg [13]: 100%; MST [14]: >21 days; Activity [15]: Active
CC(C)=CCOc1cc(NC(=S)c2ccoc2C)ccc1Cl [UC 781]	> 64	> 64	0.003	38.5	> 64	> 100	27.4	> 64	
